This passage reports IC50 results from patent US20240124455A1, “TRICYCLIC COMPOUNDS AS ANTICANCER AGENTS” (JINGRUI BIOPHARMA CO., LTD., priority 2021, published 2024).

Experiment [1] concerns the target T1, BRD4 (BD1) (Homo sapiens, UniProt O60885).
T1 construct: purchased Reaction Biology Company RD-11-157
As to the kind of experiment: BRD4 (BD1) binding assay (HTRF). As to conditions: BRD4 (D1) with GST tag and biotin-labeled acetylated peptide. As to the method:
The BRD4 (BD1) biochemical binding assay was carried out by Sundia MediTech Co., Ltd. • Materials and suppliers: • BRD4(D1): Reaction Biology Company; catalog #: RD-11-157; batch #1319 • Positive control compound: AZD5153; Selleck, catalog #, S8344, batch #, 1 • Peptide: GL China; catalog #329934; batch #, P171229-JQ329934 • DMSO: Sigma; catalog #, D8418-1L; batch #, SHBG3288V • OptiPlate-384: PerkinElmer; catalog #6007270, batch #, 8240-17211 • Instruments: • Centrifuge (manufacturer: Eppendorf, model: 5430) • Microplate reader (manufacturer: Perkin Elmer, model: EnVision) • Sonic pipetting system (manufacturer: Labcyte, model: Echo® 550) • In the assay, the HTRF method uses an anti-GST antibody with a cryptate chelate-labeled europium element as the donor, and the d2 or XL665-labeled streptavidin (having high affinity with biotin) as the acceptor to study the interaction between BRD4 (D1) with GST tag and biotin-labeled acetylated peptide. When the donor and acceptor are close to each other due to the binding of BRD4 (D1) to the biotin-labeled peptide, the excitation of the donor triggers fluorescence resonance energy transfer (FRET) to the acceptor, which then emits fluorescence at a specific wavelength (665 nm). • General assay procedure: 20 nL of compound solution was transferred to the 384-well plate by Labcyte Echo® 550 liquid handler, and 5 μL of BRD4 (BD1) solution from Reaction Biology Company, RD-11-157, or the assay buffer was added to each well. After centrifuge for 1 minute and incubating 15 minutes at rt, the 5 μL peptide (GL China, Catalog #329934, Batch, P171229-JQ329934) was added to each well. After centrifuge for 1 minute at 1000 rpm, 10 μL detect solution was added to each well. After incubating for 60 minutes, centrifuging 1 minute, the signals were measured by Microplate reader. Data analysis: The inhibition percentage in the presence of the compound was calculated based on the following formula:
% Inhibition=(Signal_max−Signal sample/Signal_max−Signal_min)×100
Fitting the data in GrphaPad Prism V5.0 software with log(inhibitor) vs. response-Variable slope, the IC50 was obtained.
A general note: Time-resolved FRET reads energy transfer from a long-lived donor to a nearby acceptor.

In experiment [2] the test system is MV-4-11. Kind of experiment: Cell proliferation assay (Cell Titer-Glo). It is filed as cell-based. As to conditions: MV-4-11 cells, compound treatment 72 h, CellTiter-Glo. The procedure: In order to evaluate the activity of the compound on cells, the Cell Titer-Glo assay was used for detection. The cells were incubated in a 37° C. incubator and treated with compounds for 72 hours. At the end of the reaction, the number of living cells in the culture is measured by quantitative determination of ATP. ATP is an indicator of the metabolism of living cells. With Cell Titer-Glo, the luminescence signal produced by cell lysis is proportional to the amount of ATP present, and the amount of ATP is directly proportional to the number of cells in the culture. These signal ratios reflect the cell activity of the compound at that concentration in the well under this condition. • (1) Seeding cells • Trypsinize cells and count cell density with the automated cell counter. • Dilute cell suspension to required density according to seeding density. • Seed 100 ul cells into 96-well plate in growth medium according to the plate map. Medium only is used as background control (Min). • Incubate at 37° C., 5% CO2 overnight. • (2) Compound treatment • Make 200× compound solution in DMSO. • Dilute compounds with growth medium to 3× final concentration by addition of 3 ul 200× compounds to 197 ul growth medium. • Add 50 ul diluted compounds to cells and incubate at 37° C., 5% CO2 for 72 h. • (3) Measurement • Equilibrate the assay plate to room temperature prior to measurement. • Add 40 ul of CellTiter-Glo® Reagent into each well. • Mix contents for 2 minutes on an orbital shaker to induce cell lysis. • Incubate at room temperature for 60 minutes to stabilize luminescent signal. • Record luminescence on Envision. • (4) Data analysis • (1) Using GraphPad Prism 5. • (2) % Inh=(Max signal−Compound signal)/(Max signal−Min signal)×100. • (3) Max signal was obtained from the action of DMSO. • (4) Min signal was obtained from the action of medium only.

Turning to `[2H]C([2H])([2H])c1nnn(C)c1-c1cnc2c3nn(C([2H])([2H])[2H])c(C(C)(C)O)c3n(C(c3ncccc3F)C3CCOCC3)c2c1` (single isomer, unassigned) [Example 23, 2-(4-((3-Fluoropyridin-2-yl)(tetrahydro-2H-pyran-4-yl)methyl)-2-(methyl-d3)-6-(1-methyl-4-(methyl-d3)-1H-1,2,3-triazol-5-yl)-2,4-dihydropyrazolo[3′,4′:4,5]pyrrolo[3,2-b]pyridin-3-yl)propan-2-ol], the figures for the half-inhibitory concentration (IC50) in experiment [1] and in experiment [2] were 4.4 nM and 66.8 nM, respectively.
In the same order, the values of `[2H]C([2H])([2H])c1nnn(C)c1-c1cnc2c3nn(C([2H])([2H])[2H])c(C(C)(C)O)c3n(C(c3ncccc3F)C3CCOCC3)c2c1` (single isomer, unassigned) [Example 24, 2-(4-((3-Fluoropyridin-2-yl)(tetrahydro-2H-pyran-4-yl)methyl)-2-(methyl-d3)-6-(1-methyl-4-(methyl-d3)-1H-1,2,3-triazol-5-yl)-2,4-dihydropyrazolo[3′,4′:4,5]pyrrolo[3,2-b]pyridin-3-yl)propan-2-ol] are 0.17 nM and 0.47 nM.
With `Cc1nnn(C)c1-c1cnc2c3nn(C)c(C(C)(C)O)c3n([C@@H](c3ccccn3)C3CCOCC3)c2c1` [Example 7], the half-maximal inhibitory concentration (IC50) (in general, the point on the concentration scale where inhibition reaches its midpoint) was determined as 8.4 nM in experiment [1] and 139 nM in experiment [2] (Homo sapiens, MV4-11, 72 h).
Regarding `Cc1nnn(C)c1-c1cnc2c3nn(C)c(C(C)(C)O)c3n([C@H](c3ccccn3)C3CCOCC3)c2c1` [Example 8], the IC50 in experiment [1] came out at 0.18 nM; in experiment [2] (Homo sapiens, MV4-11, 72 h), 0.75 nM.
Take `COC(=O)c1c2c(nn1C)c1ncc(-c3c(C)nnn3C)cc1n2C(c1ncccc1F)C1CCOCC1` (stereo not drawn) [Example 9, Methyl 6-(1,4-dimethyl-1H-1,2,3-triazol-5-yl)-4-((3-fluoropyridin-2-yl)(tetrahydro-2H-pyran-4-yl)methyl)-2-methyl-2,4-dihydropyrazolo[3′,4′:4,5]pyrrolo[3,2-b]pyridine-3-carboxylate]: the IC50 in experiment [1] is 0.51 nM; in experiment [2] (Homo sapiens, MV4-11, 72 h), 1.52 nM.
With `[2H]C([2H])([2H])c1nnn(C)c1-c1cnc2c3nn(C)c(C(=O)OC)c3n(C(c3ncccc3F)C3CCOCC3)c2c1` (stereo not drawn) [Example 17, Methyl 4-((3-fluoropyridin-2-yl)(tetrahydro-2H-pyran-4-yl)methyl)-2-methyl-6-(1-methyl-4-(methyl-d3)-1H-1,2,3-triazol-5-yl)-2,4-dihydropyrazolo[3′,4′:4,5]pyrrolo[3,2-b]pyridine-3-carboxylate], the concentration for half-maximal inhibition (IC50) in experiment [1] stood at 0.59 nM; in experiment [2] (Homo sapiens, MV4-11, 72 h) it was 3.3 nM.
